# Data: PMC10006169, “A phase I trial of LXS196, a protein kinase C (PKC) inhibitor, for metastatic uveal melanoma” (British Journal of Cancer, 2023)
# Read-outs that look alike come from different tables or passages of the source.
# Assay: Plasma pharmacokinetics (LC-MS/MS)
# Format: in vivo, human
# Details: for AUC(0-inf) / half-life / AUC(0-t) / Cmax: human, plasma, oral, 100 mg, C1D1, 100 mg QD
# Description: In the dose escalation part of the study, PK samples were collected at various pre- and post-dose time points on C1D1, D2, D3, D15 and D16. Drug concentrations were assessed using a validated liquid chromatography-tandem mass spectrometry assay.
structure (smiles),measurement,setting,value
CC1(N)CCN(c2cccnc2NC(=O)c2nc(-c3ncccc3C(F)(F)F)cnc2N)CC1 [LXS196],Increase in exposure (AUC0–t and Cmax) with dose,"C1D1 and D15, QD and BID",under-proportional
same,"Racc (accumulation ratio), Geo-mean","C1D15, 100 mg QD, n=2",1.2
same,"Racc (accumulation ratio), Mean (SD)","C1D15, 100 mg QD, n=2",1.27 (0.570)
same,"Racc (accumulation ratio), Median (Min, max)","C1D15, 100 mg QD, n=2","1.27 (0.867, 1.67)"
same,"Cmin, Geo-mean","C1D15, 100 mg QD, n=3",137 ng/mL
same,"Cmin, Mean (SD)","C1D15, 100 mg QD, n=3",144 (58.0) ng/mL
same,"Cmin, Geo-mean","C1D15, 200 mg BID, n=5",705 ng/mL
same,"Cmin, Mean (SD)","C1D15, 200 mg BID, n=5",787 (376) ng/mL
same,"Racc (accumulation ratio), Geo-mean","C1D15, 200 mg BID, n=5",0.989
same,"Racc (accumulation ratio), Mean (SD)","C1D15, 200 mg BID, n=5",1.11 (0.611)
same,"Racc (accumulation ratio), Median (Min, max)","C1D15, 200 mg BID, n=5","0.852 (0.539, 2.00)"
same,"Racc (accumulation ratio), Geo-mean","C1D15, 200 mg QD, n=2",0.743
same,"Racc (accumulation ratio), Mean (SD)","C1D15, 200 mg QD, n=2",0.750 (0.145)
same,"Racc (accumulation ratio), Median (Min, max)","C1D15, 200 mg QD, n=2","0.75 (0.647, 0.852)"
same,"Cmin, Geo-mean","C1D15, 200 mg QD, n=3",134 ng/mL
same,"Cmin, Mean (SD)","C1D15, 200 mg QD, n=3",143 (59.2) ng/mL
same,"Racc (accumulation ratio), Geo-mean","C1D15, 300 mg BID, n=12",1.09
same,"Racc (accumulation ratio), Mean (SD)","C1D15, 300 mg BID, n=12",1.15 (0.403)
same,"Racc (accumulation ratio), Median (Min, max)","C1D15, 300 mg BID, n=12","1.07 (0.549, 1.98)"
same,"Cmin, Geo-mean","C1D15, 300 mg BID, n=17",912 ng/mL
same,"Cmin, Mean (SD)","C1D15, 300 mg BID, n=17",1040 (462) ng/mL
same,"Cmin, Median (Min, max)","C1D15, 300 mg BID, n=17","1070 (155, 2100) ng/mL"
same,"Racc (accumulation ratio), Geo-mean","C1D15, 300 mg QD, n=13",0.895
same,"Racc (accumulation ratio), Mean (SD)","C1D15, 300 mg QD, n=13",0.934 (0.307)
same,"Racc (accumulation ratio), Median (Min, max)","C1D15, 300 mg QD, n=13","0.838 (0.577, 1.72)"
same,"Cmin, Geo-mean","C1D15, 300 mg QD, n=14",344 ng/mL
same,"Cmin, Mean (SD)","C1D15, 300 mg QD, n=14",426 (319) ng/mL
same,"Racc (accumulation ratio), Geo-mean","C1D15, 400 mg BID, n=3",0.721
same,"Racc (accumulation ratio), Mean (SD)","C1D15, 400 mg BID, n=3",0.738 (0.204)
same,"Racc (accumulation ratio), Median (Min, max)","C1D15, 400 mg BID, n=3","0.643 (0.599, 0.972)"
same,"Cmin, Geo-mean","C1D15, 400 mg BID, n=4",627 ng/mL
same,"Cmin, Mean (SD)","C1D15, 400 mg BID, n=4",647 (194) ng/mL
same,"Cmin, Median (Min, max)","C1D15, 400 mg BID, n=4","608 (464, 909) ng/mL"
same,"Racc (accumulation ratio), Geo-mean","C1D15, 500 mg QD, n=8",0.767
same,"Racc (accumulation ratio), Mean (SD)","C1D15, 500 mg QD, n=8",0.793 (0.214)
same,"Racc (accumulation ratio), Median (Min, max)","C1D15, 500 mg QD, n=8","0.768 (0.484, 1.11)"
same,"Cmin, Geo-mean","C1D15, 500 mg QD, n=9",622 ng/mL
same,"Cmin, Mean (SD)","C1D15, 500 mg QD, n=9",660 (234) ng/mL
same,"Cmin, Geo-mean","C1D15, 1000 mg QD, n=2",673 ng/mL
same,"Cmin, Mean (SD)","C1D15, 1000 mg QD, n=2",674 (10.6) ng/mL
same,"Racc (accumulation ratio), Geo-mean","C1D15, 1000 mg QD, n=2",0.709
same,"Racc (accumulation ratio), Mean (SD)","C1D15, 1000 mg QD, n=2",0.718 (0.161)
same,"Racc (accumulation ratio), Median (Min, max)","C1D15, 1000 mg QD, n=2","0.718 (0.604, 0.832)"
same,PK variability (CV% for Cmax and AUC0–t),between-patient,moderate
same,AUC(0-inf),"n=2, read-out: AUCinf, Geo-mean",8560 ng·h/mL
same,AUC(0-inf),"n=2, read-out: AUCinf, Mean (SD)",8640 ng·h/mL
same,AUC(0-inf),"n=2, read-out: AUCinf, Median (Min, max)",8640 ng·h/mL
same,half-life,"n=2, read-out: T1/2, Geo-mean (converted)",8.43 h
same,half-life,"n=2, read-out: T1/2, Mean (SD) (converted)",8.49 h
same,half-life,"n=2, read-out: T1/2, Median (Min, max) (converted)",8.49 h
same,AUC(0-t),"n=3, read-out: AUC0-t, Geo-mean",8440 ng·h/mL
same,AUC(0-t),"n=3, read-out: AUC0-t, Mean (SD)",8670 ng·h/mL
same,AUC(0-t),"n=3, read-out: AUC0-t, Median (Min, max)",8020 ng·h/mL
same,Cmax,"n=3, read-out: Cmax, Geo-mean",774 ng/mL
same,Cmax,"n=3, read-out: Cmax, Mean (SD)",776 ng/mL
same,Cmax,"n=3, read-out: Cmax, Median (Min, max)",811 ng/mL
